Laboratory results: patent US9051265B2, “N-benzylindole modulators of PPARG” (The Scripps Research Institute, priority 2011, dated 2015)

Tested on: PPARG (murine PPARg2 or full-length human PPARg)
Test: Cell-based PPRE-luciferase transactivation assay in COS-1 cells

CN(CCOc1ccc(CC2SC(=O)NC2=O)cc1)c1ccccn1 (stereo not shown) [rosiglitazone]
activation of the PPRE reporter: about 5 fold
